Experimental findings from patent US11597724B2, “Herbicidally active 3-phenylisoxazoline-5-carboxamides of tetrahydro and dihydrofuran carboxylic acids and esters” (Bayer Aktiengesellschaft, priority 2017, dated 2023) are described below.

The structures appear in SMILES notation.

Holding throughout (format): in vivo
Assay [1] deals with Polygonum convolvulus. The assay can be described thus: Post-emergence herbicidal activity against POLCO. The following applies: Fallopia convolvulus, 504 h, dosage 320 g/ha, rated about 3 weeks after treatment. In outline: (§1)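 Greenhouse weeds in sandy loam were sprayed at the one-leaf stage, 2–3 weeks after sowing, with WP or EC formulations plus 0.5% additive at 600 l/ha water. About 3 weeks later, damage was rated visually against untreated controls, where 100% means plants dead and 0% means like control.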

Assay [2] concerns Hordeum murinum. The assay can be described thus: Post-emergence herbicidal activity against HORMU. The following applies: Hordeum murinum, 504 h, dosage 320 g/ha. In short, it runs like this:
(§2)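 Greenhouse pot plants sprayed post-emergence at one-leaf stage (2-3 weeks after sowing) with WP or EC formulations, 0.5% additive, 600 l/ha water. Visual rating about 3 weeks later versus untreated controls: 100% = plants dead, 0% = like control.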

Assay [3] has as its system Echinochloa crus-galli. The assay can be described thus: Post-emergence herbicidal activity against ECHCG. The note with it: Echinochloa crus-galli, 504 h, dosage 320 g/ha, rated about 3 weeks after treatment. In short, it runs like this: as §2
The test system of assay [4] is Avena fatua. The assay can be described thus: Post-emergence herbicidal activity against AVEFA. The note with it: Avena fatua, 504 h, dosage 320 g/ha, rated about 3 weeks after treatment. In outline:
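Greenhouse pots of sandy loam; plants sprayed at one-leaf stage, 2 to 3 weeks after sowing, with WP or EC formulations in water plus 0.5% additive at 600 l/ha. Activity rated visually after about 3 weeks against untreated controls (100% = plants dead, 0% = like control).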

For assay [5], the system named is Setaria viridis. The assay can be described thus: Post-emergence herbicidal activity against SETVI. The following applies: Setaria viridis, 504 h, dosage 320 g/ha, rated about 3 weeks after treatment. In short, it runs like this:
as §1

For assay [6], the system named is Pharbitis purpurea. The assay can be described thus: Post-emergence herbicidal activity against PHBPU. The note with it: Ipomoea purpurea, 504 h, dosage 320 g/ha, rated about 3 weeks after treatment. In outline: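 Greenhouse-grown plants sprayed post-emergence at the one-leaf stage, 2 to 3 weeks after sowing, with WP or EC formulations plus 0.5% additive at 600 l/ha water. Activity rated visually after about 3 weeks versus untreated controls (100% = plants dead, 0% = like control).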

As for `COC(=O)C1=C[C@H](NC(=O)C2(C)CC(c3cccc(F)c3)=NO2)CO1` (stereo partly drawn) [I-39, methyl (3S)-3-[[3-(3-fluorophenyl)-5-methyl-4H-isoxazole-5-carbonyl]amino]-2,3-dihydrofuran-5-carboxylate], the pest or weed control at 320 g/ha came to 80% in assay [1]; 100% in assay [2]; 100% in assay [3]; 100% in assay [4]; 90% in assay [5]; 90% in assay [6].
For `COC(=O)[C@H]1C[C@H](NC(=O)[C@@]2(C)CC(c3cc(F)cc(F)c3)=NO2)CO1` (mixture of isomers) [I-55, methyl trans-4-[[(5R)-3-(3,5-difluorophenyl)-5-methyl-4H-isoxazole-5-carbonyl]amino]tetrahydrofuran-2-carboxylate], the pest or weed control at 320 g/ha came to 90% in assay [1]; 100% in assay [2]; 90% in assay [3]; 90% in assay [4]; 90% in assay [5]; 90% in assay [6].
For the molecule `COC(=O)[C@@]1(OC)C[C@@H](NC(=O)C2(C)CC(c3cccc(F)c3)=NO2)CO1` (stereo partly drawn) [I-47, methyl (2R,4R)-4-[[3-(3-fluorophenyl)-5-methyl-4H-isoxazole-5-carbonyl]amino]-2-methoxytetrahydrofuran-2-carboxylate], the pest or weed control at 320 g/ha worked out at 80% in assay [1]; 100% in assay [2]; 100% in assay [3]; 100% in assay [4]; 80% in assay [5]; 90% in assay [6].
On to `COC(=O)[C@H]1C[C@@H](NC(=O)C2(OC)CC(c3cc(C)cc(Br)c3)=NO2)CO1` (relative stereo) [I-08, methyl cis-4-[[3-(3-bromo-5-methylphenyl)-5-methoxy-4H-isoxazole-5-carbonyl]amino]tetrahydrofuran-2-carboxylate], for which the pest or weed control at 320 g/ha amounted to 80% in assay [1]; 90% in assay [3]; 100% in assay [4]; 80% in assay [5]; 90% in assay [6].
As to `COC(=O)[C@H]1C[C@@H](NC(=O)C2(C)CC(c3cc(C)cc(Br)c3)=NO2)CO1` (relative stereo) [I-04, methyl cis-4-[[3-(3-bromo-5-methylphenyl)-5-methyl-4H-isoxazole-5-carbonyl]amino]tetrahydrofuran-2-carboxylate], the pest or weed control at 320 g/ha in assay [1] is 80%; in assay [3] it was 90%; in assay [4] it was 100%; in assay [5], 80%; in assay [6], 90%.
In the case of `COC(=O)[C@H]1C[C@@H](NC(=O)C2(OC)CC(c3cc(F)cc(F)c3)=NO2)CO1` (relative stereo) [I-05, methyl cis-4-[[3-(3,5-difluorophenyl)-5-methoxy-4H-isoxazole-5-carbonyl]amino]tetrahydrofuran-2-carboxylate], the pest or weed control at 320 g/ha in assay [1] was 90%; in assay [3] it was 90%; in assay [4], 100%; in assay [5] it was 90%; in assay [6], 90%.
As for `COC(=O)[C@H]1C[C@@H](NC(=O)C2(OC)CC(c3ccccc3)=NO2)CO1` (relative stereo) [I-14, methyl cis-4-[(5-methoxy-3-phenyl-4H-isoxazole-5-carbonyl)amino]tetrahydrofuran-2-carboxylate], the pest or weed control at 320 g/ha in assay [1] came out at 90%; in assay [3], 80%; in assay [4], 100%; in assay [5] it was 80%; in assay [6], 80%.

Broadly, the pest or weed control is how far the test organism was held down.
